Reference: patent publication US6417141B1, “Substituted aminouracils” (Bayer Aktiengesellschaft, priority 1995, dated 2002)

Columns and labels:
Type in all cases: in vivo
Settings in all cases: greenhouse, 125 g/ha a.i., rated after three weeks vs untreated control
Cyperus [1] = test: Pre-emergence test
Protocol: (§1) Solvent: 5 parts by weight of acetone
(§2) Emulsifier: 1 part by weight of alkylaryl polyglycol ether
(§3) To produce a suitable preparation of active compound, 1 part by weight of active compound is mixed with a stated amount of solvent, the stated amount of the emulsifier is added and the concentrate is diluted with water to the desired concentration.
(§4) Seeds of the test plants are sown in normal soil. After about 24 hours, the soil is watered with the preparation of the active compound. It is advantageous to keep the amount of water per unit area constant. The concentration of the active compound in the preparation is immaterial, only the amount of active compound applied per unit area matters.
(§5) After three weeks, the degree of damage to the plants is rated in % damage by comparison with the development of the untreated control.
(§6) 0%=no effect (like untreated control)

Avena [2] = test: Pre-emergence test
Protocol: as §1, §2, §3, §4, §5, §6

Xanthium [3] = test: Pre-emergence test
Protocol: as §1, §2, §3, §4, §5, §6

Setaria [4] = test: Pre-emergence test
Protocol: as §1, §2, §3, §4, §5, §6

Alopecurus [5] = test: Pre-emergence test
Protocol: as §1, §2, §3, §4, §5, §6

Abutilon [6] = test: Pre-emergence test
Protocol: as §1, §2, §3, §4, §5, §6

Amaranthus [7] = test: Pre-emergence test
Protocol: as §1, §2, §3, §4, §5, §6

Galium [8] = test: Pre-emergence test
Protocol: as §1, §2, §3, §4, §5, §6

Sinapis [9] = test: Pre-emergence test
Protocol: as §1, §2, §3, §4, §5, §6

Cyperus [10] = test: Post-emergence test
Protocol: as §1, §2
(§7) To produce a suitable preparation of active compound, 1 part by weight of active compound is mixed with the stated amount of solvent, the stated amount of emulsifier is added and the concentrate is diluted with water to the desired concentration.
(§8) Test plants which have a height of 5-15 cm are sprayed with the preparation of the active compound in such a way as to apply the particular amounts of active compound desired per unit area.
as §5, §6

Avena [11] = test: Post-emergence test
Protocol: as §1, §2, §7, §8, §5, §6

Xanthium [12] = test: Post-emergence test
Protocol: as §1, §2, §7, §8, §5, §6

Setaria [13] = test: Post-emergence test
Protocol: as §1, §2, §7, §8, §5, §6

Alopecurus [14] = test: Post-emergence test
Protocol: as §1, §2, §7, §8, §5, §6

Abutilon [15] = test: Post-emergence test
Protocol: as §1, §2, §7, §8, §5, §6

Amaranthus [16] = test: Post-emergence test
Protocol: as §1, §2, §7, §8, §5, §6

Galium [17] = test: Post-emergence test
Protocol: as §1, §2, §7, §8, §5, §6

Sinapis [18] = test: Post-emergence test
Protocol: as §1, §2, §7, §8, §5, §6

COc1cc(-n2c(=O)cc(C(F)(F)F)n(N)c2=O)c(F)cc1C#N [Example 1, 1-(4-cyano-2-fluoro-5-methoxy-phenyl)-3,6-dihydro-2,6-dioxo-3-amino-4-trifluoromethyl-1(2H)-pyrimidine]
100%: degree of damage to the plants, Cyperus (Cyperus [1]) | degree of damage to the plants, Avena (Avena [2]) | degree of damage to the plants, Xanthium (Xanthium [3]) | degree of damage to the plants, Setaria (Setaria [4]) | degree of damage to the plants, Alopecurus (Alopecurus [5]) | degree of damage to the plants, Abutilon (Abutilon [6]) | degree of damage to the plants, Amaranthus (Amaranthus [7]) | degree of damage to the plants, Galium (Galium [8]) | degree of damage to the plants, Sinapis (Sinapis [9]) | degree of damage to the plants, Cyperus (Cyperus [10]) | degree of damage to the plants, Avena (Avena [11]) | degree of damage to the plants, Xanthium (Xanthium [12]) | degree of damage to the plants, Setaria (Setaria [13]) | degree of damage to the plants, Alopecurus (Alopecurus [14]) | degree of damage to the plants, Abutilon (Abutilon [15]) | degree of damage to the plants, Amaranthus (Amaranthus [16]) | degree of damage to the plants, Galium (Galium [17]) | degree of damage to the plants, Sinapis (Sinapis [18])
